Results on eleven molecules are retold here after paper PMC9146377, “Design and Synthesis of Novel Bis-Imidazolyl Phenyl Butadiyne Derivatives as HCV NS5A Inhibitors” (Pharmaceuticals, 2022).

Series [1] has as its system HCV genotype 1b Con-1 subgenomic replicon. The experiment in a line: Anti-HCV luciferase assay, genotype 1b (Con1) subgenomic replicon in Huh5-2 cells. Format: cell-based, Hepatitis C virus. The note with it: for HCV Replicon 1b SI50: CC50/EC50, Huh5-2 cells; for EC50: mean of three experiments. The procedure:
(§1) All synthesized compounds were tested against HCV genotype 1b Con-1 subgenomic replicon in the Huh-5-2 stable cell line. Specifically, their activity against viral replication was estimated by measuring firefly luciferase, which is co-expressed by the bicistronic replicon, and their half-maximal effective concentrations (EC50) were determined. In parallel, the half-maximal cytotoxic concentrations (CC50) of the compounds were estimated, and their selective indexes (SI50: CC50/ EC50) were calculated. All novel synthesized compounds were active against HCV 1b with EC50 < 1 µM except for compound 4b (Table 3).
Huh5-2 [65] and Huh7-JFH1 [66] stable cell lines harbor the subgenomic HCV reporter replicon I389luc-ubi-neo/NS3-3′/Con1/5.1 (genotype 1b; strain Con1) and I389luc-ubi-neo/NS3-3′_dg_JFH1 (genotype 2a, JFH1 strain), respectively (kindly provided by R. Bartenschlager, Heidelberg University, Heidelberg, Germany). Huh7.5-3a and Huh7.5-4a stable cell lines harbor the subgenomic HCV reporter replicon S52-SG (Feo) (AII) (genotype 3a; S52 strain) and ED43-SG (Feo) (VYG) (genotype 4a; ED43 strain), respectively (viral constructs kindly provided by C.M. Rice, Rockefeller University, New York, NY, USA). These replicons carry as a first cistron firefly luciferase (F-Luc) and neomycin phosphotransferase genes under the translational control of the HCV internal ribosome entry site (IRES), followed by HCV NS3 to NS5B proteins under the control of the EMCV IRES.
The anti-HCV assay in replicon cells was performed by seeding 1 × 10^4 cells per well in a 96-well plate. After 24 h of incubation at 37 °C (5% CO2) and medium removal, serial dilutions of the test compounds in complete DMEM were added. Cells were lysed after 72 h, and F-Luc activity was measured. The anti-HCV assay for the full-length viral construct H77S.3/GLuc2A was performed after electroporation of Huh7-Lunet cells with viral RNA. Cells were seeded in 96-well plates, the medium was removed 24 h after electroporation, and serial dilutions of the compounds in complete DMEM were added. At 72 h post-treatment, cell supernatants were collected, and G-Luc activity was measured. In addition, the cells were lysed for total protein quantification.
Relative luminescence units (RLU) were expressed as a percentage of the respective units derived from DMSO-treated cells (control). The half-maximal effective concentration (EC50), defined as the concentration of compound that reduces luciferase signal by 50%, was calculated by dose-response curve analysis using Prism 5.0 software (GraphPad Software Inc., San Diego, CA, USA).
The F-Luc activity was measured using the Luciferase Assay System (Promega, Madison, WI, USA), as recommended by the manufacturer. The G-Luc activity was measured using 12 μM coelenterazine (Promega) in assay buffer (50 mM potassium phosphate, pH 7.4, 500 mM NaCl, 1 mM EDTA). Measurements were carried out using a GloMax 20/20 single tube luminometer (Promega) for 10 s. The F-Luc activity was normalized to the total protein amount determined using the Bradford assay reagent (Pierce, Waltham, MA, USA).

Series [2] can be described thus: Cytotoxicity assay (intracellular ATP levels) in Huh5-2 replicon cells. Format: cell-based. The note with it: human, Huh5-2 cells, read-out: HCV Replicon 1b CC50. The protocol:
as §1
Intracellular ATP levels were measured to determine the cytotoxicity of the compounds in the treated cells. In 96-well plates, 10^4 cells per well were seeded, incubated with serial dilutions of the compounds or DMSO as a control for 72 h at 37 °C (5% CO2) and lysed for ATP measurement. ATP levels were measured using the ViaLight HS BioAssay kit (Lonza, Basel, Switzerland) in a GloMax 20/20 single-tube luminometer (Promega) for 1 s, according to the manufacturer’s protocol. Values were normalized to total protein amounts and used to determine the compound concentration causing 50% cell death (CC50). Nonlinear regression analysis was performed using Prism 5.0 software (GraphPad Software Inc., San Diego, CA, USA).

Setting [3] is: Hepatitis C virus, Huh-5-2, 72 h, read-out: HCV Replicon 1b EC50, Huh5-2 cells, Con1 strain, F-Luc, 72 h.
Where [4] appears, read: Huh5-2 cells, Con1 strain, F-Luc, 72 h, read-out: HCV Replicon 1b EC50.
Setting [5] is: Hepatitis C virus, Huh-5-2, 72 h, Huh5-2 cells, Con1 strain, F-Luc, 72 h, read-out: HCV Replicon 1b EC50.

Read-outs that look alike come from different tables or passages of the source. Some results are limits rather than exact numbers.

In the case of `COC(=O)N[C@H](C(=O)N1CCC[C@H]1c1ncc(-c2cccc(C#CC#Cc3cccc(-c4cnc([C@@H]5CCCN5C(=O)[C@@H](NC(=O)OC)c5ccccc5)[nH]4)c3)c2)[nH]1)c1ccccc1` [Compound 9a, Dimethyl ((1S,1′S)-((2S,2′S)-((buta-1,3-diyne-1,4-diylbis(3,1-phenylene))bis(1H-imidazole-5,2-diyl))bis(pyrrolidine-2,1-diyl))bis(2-oxo-1-phenylethane-2,1-diyl))dicarbamate], the melting point fell in the range of 125 to 127 °C. For the same molecule, the “HCV Replicon 1b SI50” value in series [1] is listed as more than 1611.86. For the same molecule, in series [1] (setting [3]), the EC50 was found to be 62 nM. For the same molecule, the EC50 in series [1] (setting [4]) turned out to be 62 nM. The CC50 at 72 h in series [2] is more than 100 µM.
Turning to `CCOC(=O)N[C@@H](CC(C)C)C(=O)N1CCC[C@H]1c1ncc(-c2ccc(C#CC#Cc3ccc(-c4cnc([C@@H]5CCCN5C(=O)[C@H](CC(C)C)NC(=O)OCC)[nH]4)cc3)cc2)[nH]1` [Compound 7b, Diethyl ((2S,2′S)-((2S,2′S)-((buta-1,3-diyne-1,4-diylbis(4,1-phenylene))bis(1H-imidazole-5,2-diyl))bis(pyrrolidine-2,1-diyl))bis(4-methyl-1-oxopentane-1,2-diyl))dicarbamate], the melting point is 118 to 120 °C. For the same molecule, in series [1], the “HCV Replicon 1b SI50” value is on record as more than 1699.23. For the same molecule, the EC50 in series [1] (setting [5]) came out at 58.9 nM. Further, the CC50 at 72 h in series [2] was more than 100 µM.
On to `COC(=O)N[C@H](C(=O)N1CCC[C@H]1c1nc(-c2ccc(-c3ccc(-c4c[nH]c([C@@H]5CCCN5C(=O)[C@@H](NC(=O)OC)C(C)C)n4)cc3)cc2)c[nH]1)C(C)C` [Daclatasvir, reference compound], for which the “HCV Replicon 1b SI50” value in series [1] was 655,556. Also, the EC50 in series [1] (setting [5]) worked out at 0.027 nM. Besides, the CC50 at 72 h in series [2] was found to be 17.7 µM.
With `CCCCOC(=O)N[C@H](C(=O)N1CCC[C@H]1c1ncc(-c2ccc(C#CC#Cc3ccc(-c4cnc([C@@H]5CCCN5C(=O)[C@@H](NC(=O)OCCCC)C(C)C)[nH]4)cc3)cc2)[nH]1)C(C)C` [Compound 4b, Dibutyl ((2S,2′S)-((2S,2′S)-((buta-1,3-diyne-1,4-diylbis(4,1-phenylene))bis(1H-imidazole-5,2-diyl))bis(pyrrolidine-2,1-diyl))bis(3-methyl-1-oxobutane-1,2-diyl))dicarbamate], the melting point lay within 136 to 138 °C. Also, the EC50 in series [1] (setting [5]) was more than 1000 nM. Also, the CC50 at 72 h in series [2] was more than 100 µM.
Take `CCOC(=O)N[C@H](CC(C)C)C(=O)N1CCC[C@H]1c1ncc(-c2cccc(C#CC#Cc3cccc(-c4cnc([C@@H]5CCCN5C(=O)[C@@H](CC(C)C)NC(=O)OCC)[nH]4)c3)c2)[nH]1` [Compound 8a, Diethyl ((2R,2′R)-((2S,2′S)-((buta-1,3-diyne-1,4-diylbis(3,1-phenylene))bis(1H-imidazole-5,2-diyl))bis(pyrrolidine-2,1-diyl))bis(4-methyl-1-oxopentane-1,2-diyl))dicarbamate]: the melting point is 109 to 111 °C. For the same molecule, the “HCV Replicon 1b SI50” value in series [1] was more than 1170.82. Further, the EC50 in series [1] (setting [3]) is 85.4 nM. In addition, in series [1] (setting [4]), the EC50 was 85.4 nM. The CC50 at 72 h in series [2] was more than 100 µM.
On to `COC(=O)N[C@@H](C(=O)N1CCC[C@H]1c1ncc(-c2ccc(C#CC#Cc3ccc(-c4cnc([C@@H]5CCCN5C(=O)[C@H](NC(=O)OC)C(C)C)[nH]4)cc3)cc2)[nH]1)C(C)C` [Compound 2b, Dimethyl ((2R,2′R)-((2S,2′S)-((buta-1,3-diyne-1,4-diylbis(4,1-phenylene))bis(1H-imidazole-5,2-diyl))bis(pyrrolidine-2,1-diyl))bis(3-methyl-1-oxobutane-1,2-diyl))dicarbamate], for which the “HCV Replicon 1b SI50” value in series [1] is more than 248.20. In series [1] (setting [5]), the EC50 stood at 403 nM. Also, the CC50 at 72 h in series [2] was more than 100 µM.
The like results for `CCCCOC(=O)N[C@H](C(=O)N1CCC[C@H]1c1ncc(-c2cccc(C#CC#Cc3cccc(-c4cnc([C@@H]5CCCN5C(=O)[C@@H](NC(=O)OCCCC)C(C)C)[nH]4)c3)c2)[nH]1)C(C)C` [Compound 4a, Dibutyl ((2S,2′S)-((2S,2′S)-((buta-1,3-diyne-1,4-diylbis(3,1-phenylene))bis(1H-imidazole-5,2-diyl))bis(pyrrolidine-2,1-diyl))bis(3-methyl-1-oxobutane-1,2-diyl))dicarbamate] were, in that order, more than 110.89, 902 nM and more than 100 µM.
The matching figures for `COC(=O)N[C@H](C(=O)N1CCC[C@H]1c1ncc(-c2ccc(C#CC#Cc3ccc(-c4cnc([C@@H]5CCCN5C(=O)[C@@H](NC(=O)OC)C(C)C)[nH]4)cc3)cc2)[nH]1)C(C)C` [Compound 1b, Dimethyl ((2S,2′S)-((2S,2′S)-((buta-1,3-diyne-1,4-diylbis(4,1-phenylene))bis(1H-imidazole-5,2-diyl))bis(pyrrolidine-2,1-diyl))bis(3-methyl-1-oxobutane-1,2-diyl))dicarbamate]: more than 1113.58, 89.8 nM and more than 100 µM.
As for `CCOC(=O)N[C@@H](CC(C)C)C(=O)N1CCC[C@H]1c1ncc(-c2cccc(C#CC#Cc3cccc(-c4cnc([C@@H]5CCCN5C(=O)[C@H](CC(C)C)NC(=O)OCC)[nH]4)c3)c2)[nH]1` [Compound 7a, Diethyl ((2S,2′S)-((2S,2′S)-((buta-1,3-diyne-1,4-diylbis(3,1-phenylene))bis(1H-imidazole-5,2-diyl))bis(pyrrolidine-2,1-diyl))bis(4-methyl-1-oxopentane-1,2-diyl))dicarbamate], the “HCV Replicon 1b SI50” value in series [1] is on record as more than 1021.55. Also, the EC50 worked out at 97.8 nM in series [1] (setting [3]) and 97.9 nM in series [1] (setting [4]). Moreover, in series [2], the CC50 at 72 h is more than 100 µM.
As for `COC(=O)N[C@H](C(=O)N1CCC[C@H]1c1ncc(-c2ccc(C#CC#Cc3ccc(-c4cnc([C@@H]5CCCN5C(=O)[C@@H](NC(=O)OC)c5ccccc5)[nH]4)cc3)cc2)[nH]1)c1ccccc1` [Compound 9b, Dimethyl ((1S,1′S)-((2S,2′S)-((buta-1,3-diyne-1,4-diylbis(4,1-phenylene))bis(1H-imidazole-5,2-diyl))bis(pyrrolidine-2,1-diyl))bis(2-oxo-1-phenylethane-2,1-diyl))dicarbamate], the “HCV Replicon 1b SI50” value in series [1] is given as more than 542.59. Also, in series [1] (setting [5]), the EC50 worked out at 184 nM. Besides, in series [2], the CC50 at 72 h was more than 100 µM.
Consider `COC(=O)N[C@H](C(=O)N1CCC[C@H]1c1ncc(-c2cccc(C#CC#Cc3cccc(-c4cnc([C@@H]5CCCN5C(=O)[C@@H](NC(=O)OC)C(C)C)[nH]4)c3)c2)[nH]1)C(C)C` [Compound 1a, Dimethyl ((2S,2′S)-((2S,2′S)-((buta-1,3-diyne-1,4-diylbis(3,1-phenylene))bis(1H-imidazole-5,2-diyl))bis(pyrrolidine-2,1-diyl))bis(3-methyl-1-oxobutane-1,2diyl))dicarbamate], for which the EC50 in series [1] (setting [3]) stood at 166 nM. In addition, in series [2], the CC50 at 72 h was more than 100 µM.
